Test results as given in patent US20040198770A1, “Uses for l-tetrahydropalmatine” (PharmacoGenetics Limited, priority 2003, published 2004).

Experiments:
Type in all cases: in vivo
ICR mice [1] = assay: Horizontal-wire test; details: Table 2, mice, 60 s
Protocol: (§1) ICR mice of male sex, weighing 15.6-17.8 g were used, provided by Experimental Animal Centre of HKUST, housed in groups, given food and water ad libitum and maintained on a 12 hour light: 12 hour dark cycle. All of the experimental groups had 12 animals per group.
(§2) For each experimental animal, administered orally 0.2 ml (pH 7.2) of respective solvent at concentrations as stated above for each group (or double-distilled water for normal control group) one hour before testing.
Mice are lifted by the tail and allowed to grasp a horizontally strung wire (1 mm diameter, 20 cm long and placed 20 cm above the table) with their forepaws and released (Bonetti E. P. et al., Psychopharmacology (Berl). 1982; 78(1): 8-18; PMID: 6292984). For each experimental animal, the number of falling onto the table in 60 seconds was determined.
There is no significant difference between same dosage l-THP and dl-THP groups.

ICR mice [2] = assay: Elevated plus-maze test; details: mice; for Open arm entry % / Open arm entry No. / Total no. of arm entries: 300 s; for Open arm Time spent / Open arm time spent %: 300 s test
Protocol: as §1, §2
The elevated plus-maze is made of 0.5 cm thick wood as a horizontal cross consisting of two open arms (25×5 cm) and two opposite arms (25×5 cm) enclosed by 10 cm high walls. The arms extend from a central platform having dimensions of 5×5 cm. The plus-maze is elevated to a height of 40 cm from the floor. The maze is put inside a box with dimensions of 30×30×50 cm. The mice are placed on the central platform of the maze facing a closed arm. The number of arm entries and the time spent in the open and closed arm are counted for 300 seconds (Pellow S. et al., “Anxiolytic and anxiogenic drug effects on exploratory activity in an elevated plus-maze: a novel test of anxiety in the rat”, Pharmacol Biochem Behav. 1986 March; 24(3): 525-9; PMID: 2871560). Arm entry was defined as one half body entered into the arm.

ICR mice [3] = assay: Hole-board test; details: 300 s
Protocol: as §1, §2
The hole-board apparatus is a 0.5 cm thick walled wood arena of 60×60×30 cm, with four 5 cm equidistant 4 cm diameter holes spaced on the floor. The mice are placed on the centre of the arena and the number of head-dip on the hole and the number of rearing are counted during a 300 second test period (File S. E. et al., “The effects of triazolobenzo-diazepines in two animal tests of anxiety and in the holeboard.”, Br J Pharmacol. 1985 November; 86(3): 729-35; PMID: 2866006). After each trial, the floor of the apparatus was wiped and dried thoroughly with tissue to remove traces of the previous path.

Compound `COc1cc2c(cc1OC)C1Cc3ccc(OC)c(OC)c3CN1CC2` (racemic) [dl-THP, 5,8,18,13a-tetrahydro-2,3,9,10-tetramethoxy-6H-dibenzo [a,q] quinolizine, reference compound] has a Number of falling (ICR mice [1]; oral 0.5 mg/kg) of 0.30 ± 0.48, a Number of falling (ICR mice [1]; oral 1.0 mg/kg) of 0.50 ± 0.67 and a Number of falling (ICR mice [1]; oral 5.0 mg/kg) of 0.40 ± 0.49. For the same compound, the Number of falling (ICR mice [1]; oral 10 mg/kg) was 0.80 ± 0.64, the Number of falling (ICR mice [1]; oral 30 mg/kg) was 21.60 ± 8.72 and the “most medicinal dosage (time spent and percentage of open arm entry)” value (ICR mice [2]; oral) was 5 mg/kg. The “Open arm entry %” value (ICR mice [2]; oral 0.1 mg/kg) was 30.58 ± 5.83 %, the “Open arm entry No.” value (ICR mice [2]; oral 0.1 mg/kg) was 8.77 ± 1.88 and the “Total no. of arm entries” value (ICR mice [2]; oral 0.1 mg/kg) was 28.92 ± 4.73. The “Open arm entry %” value (ICR mice [2]; oral 0.5 mg/kg) was 43.13 ± 4.17%, the “Open arm entry No.” value (ICR mice [2]; oral 0.5 mg/kg) was 13.15 ± 3.33 and the “Total no. of arm entries” value (ICR mice [2]; oral 0.5 mg/kg) was 30.25 ± 5.55. The “Open arm Time spent” value (ICR mice [2]; oral 0.5 mg/kg) was 80.42 ± 15.23, the “Open arm time spent %” value (ICR mice [2]; oral 0.5 mg/kg) was 29.25 ± 5.10% and the “Open arm entry %” value (ICR mice [2]; oral 1.0 mg/kg) was 51.17 ± 5.48 %. For the same compound, the “Open arm entry No.” value (ICR mice [2]; oral 1.0 mg/kg) was 16.00 ± 3.13, the “Total no. of arm entries” value (ICR mice [2]; oral 1.0 mg/kg) was 31.20 ± 4.16 and the “Open arm Time spent” value (ICR mice [2]; oral 1.0 mg/kg) was 88.40 ± 17.37. The “Open arm time spent %” value (ICR mice [2]; oral 1.0 mg/kg) was 29.95 ± 5.31%, the “hypnotic effect / inhibition of the nervous system” value (ICR mice [2]; oral 5 mg/kg) was “does not induce a hypnotic effect or inhibit the nervous system” and the “Open arm entry %” value (ICR mice [2]; oral 5.0 mg/kg) was 50.21 ± 4.04 %. The “Open arm entry No.” value (ICR mice [2]; oral 5.0 mg/kg) was 15.23 ± 3.19, the “Total no. of arm entries” value (ICR mice [2]; oral 5.0 mg/kg) was 30.15 ± 4.83 and the “Open arm Time spent” value (ICR mice [2]; oral 5.0 mg/kg) was 95.00 ± 23.56. The “Open arm time spent %” value (ICR mice [2]; oral 5.0 mg/kg) was 32.79 ± 8.60 %, the “Head-dip No.” value (ICR mice [3]; oral 0.1 mg/kg) was 13.42 ± 12.06 and the “Rearing No.” value (ICR mice [3]; oral 0.1 mg/kg) was 22.17 ± 12.76. For the same compound, the “Total No. (head-dip and rearing)” value (ICR mice [3]; oral 0.1 mg/kg) was 35.58 ± 16.47, the “Head-dip No.” value (ICR mice [3]; oral 0.5 mg/kg) was 17.67 ± 11.14 and the “Rearing No.” value (ICR mice [3]; oral 0.5 mg/kg) was 26.50 ± 10.06. For the same compound, the “Total No. (head-dip and rearing)” value (ICR mice [3]; oral 0.5 mg/kg) was 44.17 ± 13.53, the “Head-dip No.” value (ICR mice [3]; oral 1.0 mg/kg) was 13.20 ± 10.64 and the “Rearing No.” value (ICR mice [3]; oral 1.0 mg/kg) was 20.40 ± 15.74. The “Total No. (head-dip and rearing)” value (ICR mice [3]; oral 1.0 mg/kg) was 33.60 ± 20.37, the “Head-dip No.” value (ICR mice [3]; oral 5.0 mg/kg) was 11.08 ± 6.34 and the “Rearing No.” value (ICR mice [3]; oral 5.0 mg/kg) was 26.39 ± 12.28. For the same compound, the “Total No. (head-dip and rearing)” value (ICR mice [3]; oral 5.0 mg/kg) was 37.46 ± 15.95.
